Entries after “also recorded” stand apart in the source; their conditions may differ.
Key:
PD-1/PD-L1 complex = target: T1, PD-1/PD-L1 complex (Homo sapiens, UniProt Q9NZQ7); experiment: HTRF (homogeneous time-resolved fluorescence) PD-1/PD-L1 binding assay (Cis-Bio); settings: for inhibition at 0.5 µM: 0.5 µM ligand, read-out: HTRF: Percentage of the Dissociated PD-1/PD-L1 Complex, 0.5 µM Ligand Conc.; for inhibition at 0.5 µM / inhibition at 5 µM: 5 nM hPD-L1, 50 nM hPD-1; for inhibition at 5 µM: 5 µM ligand, read-out: HTRF: Percentage of the Dissociated PD-1/PD-L1 Complex, 5 µM Ligand Conc.; for IC50: six ligand concentrations, two dilution series
T1 construct: purchased Cis-Bio
Method: To validate the activity toward PD-L1 of our compounds, we carried out an HTRF (homogeneous time-resolved fluorescence) experiment at two concentrations of the ligand (5 µM and 0.5 µM) (Table 1).
HTRF was carried out using a certified Cis-Bio assay according to the manufacturer’s guidelines. The experiments were carried out at 5 nM of h-L1 and 50 nM of hPD-1 in the final formulation at the 20 µL final volume in the well. To determine the half maximal inhibitory concentrations (IC50) of the tested compounds, the measurements were carried out on two individual dilution series unless stated otherwise. After mixing all the components according to the Cis-Bio protocol, the plate was left for 2 h incubation at room temperature followed by the TR-FRET measurement on a Tecan Spark 20M. […] The collected data was background-subtracted from the negative control, normalized on the positive control, averaged, and fitted with the normalized Hill’s equation to determine the IC50 value using Mathematica 12 (Princeton, NJ, USA).

[1] = test system: PD-1/PD-L1 blockade, Jurkat effector cells / CHO/TCRAct/PD-L1 cells; experiment: Immune checkpoint blockade (ICB) assay (Promega): Jurkat ECs co-cultured with CHO/TCRAct/PD-L1 cells, NFAT luciferase readout; type: cell-based, human; settings: for Activation of Jurkat ECs compared with BMS-1166: 5 µM, p < 0.001 vs BMS-1166; for Activation of Jurkat ECs in the ICB assay: 6 h co-culture, fold induction vs control; for Promega Assay (active / not active): cell-based PD-1/PD-L1 blockade bioassay
Method: In order to explore the bioactivity of the synthesized compounds, a well-recognized immune checkpoint blockade (ICB) assay was performed. In the assay, artificial T cells, the Jurkat effector cells (Jurkat ECs), i.e., the Jurkat T cells overexpressing PD-1 and luciferase-coding gene under the control of the TCR-inducible NFAT response element, are contacted with artificial antigen-presenting CHO/TCRAct/PD-L1 cells, as illustrated in [31]. The latter is the CHO cells equipped with the TCR activator molecule, which delivers activation of Jurkat ECs, and also the PD-L1 protein, which provides a negative signal towards the activation of Jurkat ECs. Upon the blockade of the PD-1/PD-L1 interaction, activation of Jurkat ECs is increased, as we have shown before for several classes of therapeutic antibodies and small molecules.
The human PD-L1-expressing CHO-K1 cells overexpressing TCR activator (CHO/TCRAct/PD-L1) cells and Jurkat ECs T cells overexpressing PD-1 and carrying a luciferase reporter gene under the control of the Nuclear Factor of Activated T cells Response Element (NFAT-RE) were obtained from Promega and cultured in an RPMI-1640 medium (Biowest, Nuaillé, France) supplemented with 10% fetal bovine serum (FBS, Biowest, Nuaillé, France) and […] L-glutamine (Biowest, Nuaillé, France). G418 (250 µg/mL, InvivoGen, San Diego, CA, USA) and Hygromycin B Gold (50 µg/mL, InvivoGen, San Diego, CA, USA) were also added to the culture medium as selection antibiotics. CAKI 2, LNCap, PC-3, and MDA-MB-231 cells were purchased from the European Collection of Authenticated Cell Cultures (ECACC) and cultured according to the provided protocol.
For the analysis of biological activity of the analyzed compounds, an immune checkpoint blockade (ICB) assay was performed. For this, the culture of Jurkat effector cells (Jurkat-ECs) and […] was carried out. The assay was performed according to the protocol described in our previous works. All the experiments were performed three times as independent experiments.
Figure 2 Bioactivity of the indicated compounds. (A,B) The activity was monitored with a cell-based immune checkpoint blockade (ICB) assay. Jurkat ECs were contacted with pre-seeded CHO/TCRAct/PD-L1 cells in the presence of the indicated concentrations of the compounds (A) or durvalumab (B) as a positive control. The cells were co-cultured for 6 h and the luminescence signal was measured following the addition of the Bio-Glo substrate. The graphs show fold induction calculated versus either DMSO-treated (for small molecules) or untreated (for durvalumab) control (ctrl) cells. The results are mean ± SD from three independent experiments. […] (C) Analysis of the expression of PD-L1 in four human cancer cell lines compared to PD-L1-overexpressing CHO/TCRAct/PD-L1 cells. (D) Analysis of the expression of PD-L1 in MDA-MB-231 cells treated with either 4 or 5 compounds for 6 or 24 h.

[2] = target: T2, PD-L1 in MDA-MB-231 cells (Homo sapiens, UniProt Q9NZQ7); experiment: Western blot of PD-L1 expression in MDA-MB-231 cells; type: cell-based; settings: MDA-MB-231 cells treated for 6 or 24 h
T2 construct: host or cells: MDA-MB-231
Method: The cell lysates were prepared with a RIPA buffer (Sigma-Aldrich) containing Protease Inhibitor Cocktail (Sigma-Aldrich, St. Louis, MO, USA) and separated by 12% SDS-PAGE (TGX™ FastCast™ Acrylamide Kit, Bio-Rad, Hercules, CA, USA). The proteins were transferred to a PVDF membrane (Merck Millipore, Burlington, MA, USA) using a Mini Trans-Blot® Cell system (Bio-Rad, Hercules, CA, USA). The membranes were incubated with 4% (m/v) bovine serum albumin (BioShop, Burlington, Ontario, Canada) in a TBS buffer containing 0.1% (v/v) Nonidet P-40 (BioShop, Burlington, Ontario, Canada) at RT for 1 h. Then, the membranes were incubated with a specific primary antibody at 4 °C overnight. Following three washes in TBS-N, a secondary horseradish peroxidase (HRP)-conjugated antibody was applied for 1 h at RT. […]
Figure 2 Bioactivity of the indicated compounds. (A,B) The activity was monitored with a cell-based immune checkpoint blockade (ICB) assay. […] The cells were co-cultured for 6 h and the luminescence signal was measured following the addition of the Bio-Glo substrate. The graphs show fold induction calculated versus either DMSO-treated (for small molecules) or untreated (for durvalumab) control (ctrl) cells. […]

T2 sequence (Q9NZQ7 19-290): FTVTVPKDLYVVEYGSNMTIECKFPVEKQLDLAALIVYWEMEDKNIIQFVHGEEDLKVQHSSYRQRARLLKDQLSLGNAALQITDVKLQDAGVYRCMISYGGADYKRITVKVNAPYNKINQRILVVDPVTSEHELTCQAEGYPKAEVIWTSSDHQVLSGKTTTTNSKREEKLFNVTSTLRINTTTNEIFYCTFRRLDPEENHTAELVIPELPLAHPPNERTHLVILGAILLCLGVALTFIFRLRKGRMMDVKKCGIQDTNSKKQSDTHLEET
T1 sequence (Q9NZQ7 19-238 limits assumed, one chain of several): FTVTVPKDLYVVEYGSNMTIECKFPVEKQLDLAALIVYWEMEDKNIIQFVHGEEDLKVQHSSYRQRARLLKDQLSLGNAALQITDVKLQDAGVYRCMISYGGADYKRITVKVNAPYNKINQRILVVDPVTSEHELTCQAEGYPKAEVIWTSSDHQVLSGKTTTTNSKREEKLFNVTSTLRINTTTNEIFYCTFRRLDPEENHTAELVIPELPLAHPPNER

Q: COc1nc(OCc2cccc(-c3ccccc3)c2C)ccc1CNCC1CCN(CC(=O)Nc2cccc3c2C(=O)N(C2CCC(=O)NC2=O)C3=O)CC1 (centres unmarked) [compound 4, N-(2-(2,6-dioxopiperidin-3-yl)-1,3-dioxoisoindolin-4-yl)-2-(4-((((2-methoxy-6-((2-methyl-[1,1′-biphenyl]-3-yl)methoxy)pyridin-3-yl)methyl)amino)methyl)piperidin-1-yl)acetamide] was tested. Which inhibition at 0.5 µM (PD-1/PD-L1 complex) did it give?
A: Its inhibition at 0.5 µM is 18.2%.

Q: What about the inhibition at 5 µM (PD-1/PD-L1 complex) of the same molecule?
A: The inhibition at 5 µM was 88.8%.

Q: And the IC50 (PD-1/PD-L1 complex)?
A: Its IC50 is 1320 ± 40 nM.

Q: What about the “Activation of Jurkat ECs compared with BMS-1166” value [1] of the same molecule?
A: Its value is “significantly higher levels of the activation of Jurkat ECs”.

Q: What about the “Activation of Jurkat ECs in the ICB assay” value [1] of the same molecule?
A: The value was “able to increase the activation of Jurkat ECs; also recorded: significantly restore the repressed immunity”.

Q: And the “Promega Assay (active / not active)” value [1]?
A: The value was “Active”.

Q: What about the “Downregulation of PD-L1 expression (Western blot)” value [2] of the same molecule?
A: The value was “not related to the downregulation of PD-L1 expression; also recorded: unrelated to the downregulation of PD-L1 expression”.

Q: For COc1nc(OCc2cccc(-c3ccccc3)c2C)ccc1CNCCCNc1cccc2c1C(=O)N(C1CCC(=O)NC1=O)C2=O (centres unmarked) [compound 5, 2-(2,6-dioxopiperidin-3-yl)-4-((3-(((2-methoxy-6-((2-methyl-[1,1′-biphenyl]-3-yl)methoxy)pyridin-3-yl)methyl)amino)propyl)amino)isoindoline-1,3-dione], which inhibition at 0.5 µM (PD-1/PD-L1 complex) is on record?
A: The inhibition at 0.5 µM was 66.3%.

Q: What about the inhibition at 5 µM (PD-1/PD-L1 complex) of the same molecule?
A: Its inhibition at 5 µM is 100%.

Q: And the IC50 (PD-1/PD-L1 complex)?
A: Its IC50 is 640 ± 20 nM.

Q: And the “Activation of Jurkat ECs compared with BMS-1166” value [1]?
A: The value was “significantly higher levels of the activation of Jurkat ECs”.

Q: What about the “Activation of Jurkat ECs in the ICB assay” value [1] of the same molecule?
A: The value was “able to increase the activation of Jurkat ECs; also recorded: significantly restore the repressed immunity”.

Q: What about the “Promega Assay (active / not active)” value [1] of the same molecule?
A: The value was “Active”.

Q: And the “Downregulation of PD-L1 expression (Western blot)” value [2]?
A: Its value is “not related to the downregulation of PD-L1 expression; also recorded: unrelated to the downregulation of PD-L1 expression”.
